{"source": "patent US20070218004A1", "about": "“Method of Identifying Therapeutic Compounds Which Can Be Used for the Treatment and/or Prevention of Infections and Diseases Caused by Human Herpesviruses” (priority 2005, published 2007)", "key": {"[1]": {"details": "rabbits; cited from earlier work"}, "[2]": {"details": "mice; cited from earlier work"}, "[3]": {"details": "rats; cited from earlier work"}, "[4]": {"tested_on": "herpes simplex virus type 1 (HSV-1) of the KOS strain", "assay_type": "in vivo, mice of the C57B1/6 lineage", "procedure": "All the animals included in the experimental process were 14-week old female mice of the C57B1/6 lineage. Between two and three adult mice were used per analysis group and between 13 and 25 neonates, depending on the availability of animals. […] All the animals went through a quarantine period and were treated with strict precautions against contamination during inoculation and dissection. The animals were intraperitoneally infected with a dose 10^6 pfu of herpes simplex virus type 1 (HSV-1) of the KOS strain (provided by el Dr. L. Carrasco, Centro de Biología Molecular Severo Ochoa, Universidad Autónoma of Madrid). […] The first group of mice was not given any treatment. […] Therefore the antiviral concentration administered per dose and mouse was 0.25 mg (10 mg/kg per mouse, far from the toxicity limit of 80 mg/kg cited above), with a total daily dose of 0.75 mg/day.\nThe dissected organs in the adult animals were the following: blood, ovaries, adrenal gland, spinal cord, brain, cerebellum and trigeminal ganglia. The entire brain was separated into three rough regions: midbrain, ventricles and cerebral cortex. In the neonates, the dissected organs were blood, spinal cord and encephalon. DNA was extracted using conventional methods (NucleoSpin®, Cat. K3053-2, ClonTech, USA). The viral load of the different organs was analyzed by means of quantitative PCR. […] Primers specific for the sequence of the viral polymerase (pol) gene were used to detect the virus (SEQ. ID. NO: 3 and SEQ. ID. NO: 4) (120 bp amplicon). The PCR conditions were one cycle of 95° C. for 10 minutes, followed by 45 cycles at 95° C. for 30 seconds, 55° C. (for β-actin) or 60° C. (for viral polymerase) for 30 seconds, and a last cycle of 72° C. for 40 seconds. The virus concentration range used for optimizing the quantitative PCR standard curve was expressed as plaque forming units (pfu). For calibrating the β-actin gene, nanograms were used as the unit of this endogenous gene. The identity of the amplified products was checked by analysis of the denaturation curves, by gel electrophoresis and restriction analysis."}, "HSV-1": {"tested_on": "HSV-1", "experiment": "Acyclovir ad libitum in drink, vertical mother-progeny transmission model (Example 3)", "assay_type": "in vivo, mice", "details": "acyclovir in drinking water ad libitum, high dose (final daily dose 1.50 mg), from the day of the vaginal plug", "procedure": "Assuming that a mouse drinks about 3 ml a day, 2 working dilutions ([…] so that the final daily dose was 0.75 mg, and […] so that the final daily dose was 1.50 mg) were used."}}, "note": "Like-named read-outs stand apart in the source and are kept apart here.", "data": [{"smiles": "Nc1nc2c(ncn2COCCO)c(=O)[nH]1", "note": "[acyclovir]", "values": [{"measurement": "teratogenicity / embryotoxicity", "setting": "[1]", "result": "non-teratogenic or embryotoxic"}, {"measurement": "teratogenicity / embryotoxicity", "setting": "[2]", "result": "non-teratogenic or embryotoxic"}, {"measurement": "teratogenicity / embryotoxicity", "setting": "[3]", "result": "non-teratogenic or embryotoxic"}, {"measurement": "viral loads both in the mothers and in the progeny (quantitative PCR)", "setting": "[4]; daily dose of 0.75 mg, both administration routes (oral and subcutaneous), FIG. 7", "result": "significant reduction"}, {"measurement": "viral levels in all the analyzed organs of the descendants", "setting": "[4]; oral acyclovir administered to the mothers, 0.75 mg/day", "result": "almost complete elimination"}, {"measurement": "mortality of neonates", "setting": "[4]; oral acyclovir to infected mothers, 0.25 mg per dose three times a day (0.75 mg/day), none of the 17 animals", "result": "no mortality"}, {"measurement": "virus levels in blood and in the trigeminal ganglia of the mothers", "setting": "[4]; oral acyclovir, 0.75 mg/day", "result": "virtually undetectable"}, {"measurement": "mortality rate of neonates", "setting": "[4]; subcutaneous acyclovir to infected mothers, 0.25 mg per dose three times a day (0.75 mg/day), from five days before crossbreeding until birth, 1 out of 25", "result": 4.0, "unit": "%"}, {"measurement": "levels of the virus in all the analyzed organs of the mother and in the progeny's CNS", "setting": "[4]; subcutaneous acyclovir, 0.75 mg/day", "result": "considerably lower levels"}, {"measurement": "survival of the animals", "setting": "HSV-1", "result": "higher"}]}]}
